Columns and labels:
FAAH [1] = biological target: T1, FAAH (Mus musculus, UniProt O08914); test: In vivo FAAH inhibition after oral dosing, remaining activity in brain homogenate (BRh, central nervous tissue); design: species or system NMRI mice; details: brain homogenate; for In Vivo BRh 3 mg·kg 8 h (remaining FAAH activity, % of control): 8 h after dosing, low value = strong inhibitor
T1 construct: A fragment of liver, left lung lobe and brain without cerebellum were removed; from tissue; host or cells: male NMRI mice; brain (without cerebellum) and liver homogenates
T1 sequence (O08914 1-579): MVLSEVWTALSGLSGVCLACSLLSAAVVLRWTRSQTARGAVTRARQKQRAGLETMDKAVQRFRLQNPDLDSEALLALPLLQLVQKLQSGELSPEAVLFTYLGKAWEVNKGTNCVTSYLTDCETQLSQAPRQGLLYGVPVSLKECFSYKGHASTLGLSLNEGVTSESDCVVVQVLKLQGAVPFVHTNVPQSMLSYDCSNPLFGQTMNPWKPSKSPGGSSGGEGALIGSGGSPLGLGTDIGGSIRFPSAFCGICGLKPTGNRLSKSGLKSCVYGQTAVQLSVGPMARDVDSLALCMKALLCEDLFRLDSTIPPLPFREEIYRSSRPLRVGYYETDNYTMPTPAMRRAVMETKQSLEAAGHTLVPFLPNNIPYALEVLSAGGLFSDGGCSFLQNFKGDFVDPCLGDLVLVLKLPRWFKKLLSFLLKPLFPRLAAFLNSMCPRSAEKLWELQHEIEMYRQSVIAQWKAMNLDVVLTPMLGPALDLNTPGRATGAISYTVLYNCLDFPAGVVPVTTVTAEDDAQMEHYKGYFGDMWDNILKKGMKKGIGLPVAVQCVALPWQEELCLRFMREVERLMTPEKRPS
Method in brief: (§1)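 Remaining FAAH activity is given as % of vehicle-treated controls after blank subtraction, measured by radiolabelled AEA hydrolysis (2 μM AEA, 5 nM 3H-AEA, 37 °C) in brain (10 min) or liver (7 min) homogenates. These came from fasted male NMRI mice dosed orally at 30 or 3 mg/kg.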

FAAH [2] = biological target: T2, FAAH (Rattus norvegicus, UniProt P97612); test: In vitro FAAH activity in rat brain membranes, 3H-AEA substrate, % of control; format: biochemical, Wistar rats; details: low value = strong inhibitor; for In Vitro FAAH activity, 100 nM: 100 nM test compound; for In Vitro FAAH activity, 10 uM: 10 uM test compound; for In Vitro 100 nM (FAAH activity, % of control): rat brain membranes, compound at 100 nM
T2 construct: Frozen brains (without cerebellum) from Wistar rats were used; from tissue; host or cells: Wistar rat brain (without cerebellum), washed membrane pellets
T2 sequence (P97612 1-579): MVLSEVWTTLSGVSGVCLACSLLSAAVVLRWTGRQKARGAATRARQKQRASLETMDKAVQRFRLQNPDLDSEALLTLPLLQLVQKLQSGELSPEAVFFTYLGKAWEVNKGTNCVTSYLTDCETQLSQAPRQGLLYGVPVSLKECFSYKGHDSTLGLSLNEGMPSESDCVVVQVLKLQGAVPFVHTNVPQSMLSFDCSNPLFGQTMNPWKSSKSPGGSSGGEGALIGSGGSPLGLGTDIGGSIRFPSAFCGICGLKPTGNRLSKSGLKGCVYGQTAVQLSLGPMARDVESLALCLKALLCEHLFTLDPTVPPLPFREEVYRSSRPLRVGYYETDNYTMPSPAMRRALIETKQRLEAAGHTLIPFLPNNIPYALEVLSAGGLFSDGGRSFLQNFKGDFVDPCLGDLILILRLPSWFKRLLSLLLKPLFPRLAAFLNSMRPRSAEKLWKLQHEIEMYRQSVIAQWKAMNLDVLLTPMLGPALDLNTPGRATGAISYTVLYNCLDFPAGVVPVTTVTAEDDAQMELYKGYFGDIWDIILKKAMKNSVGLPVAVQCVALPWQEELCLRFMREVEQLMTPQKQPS
Method in brief: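 FAAH activity measured as 3H-ethanolamine released from 2 μM [3H]AEA over 10 min by rat brain membrane preparation, after 15 min 37 °C preincubation with test compound at 10 or 0.1 μM. Charcoal-separated supernatant scintillation-counted; values expressed as % of control minus no-protein blank.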

FAAH [3] = biological target: T1, FAAH; test: In vivo FAAH inhibition after oral dosing, remaining activity in liver homogenate (LVh, peripheral tissue); design: species or system NMRI mice; details: liver homogenate; for In Vivo LVh 3 mg·kg 8 h (remaining FAAH activity, % of control): 8 h after dosing, low value = strong inhibitor
Method in brief: as §1

Compound | In Vivo BRh 3 mg/kg 8 h, remaining FAAH activity (FAAH [1]) | In Vitro FAAH activity, 100 nM (FAAH [2]) | In Vivo LVh 3 mg/kg 8 h, remaining FAAH activity (FAAH [3]) | other results
COc1ccc(-c2cn(C(=O)N3COCC3(C)C)cn2)cc1OC [Compound 216, (4-(3,4-dimethoxyphenyl)-1H-imidazol-1-yl)(4,4-dimethyloxazolidin-3-yl)methanone] | 29.3 % of control | 108.6 % of control | 13.3 % of control | In Vitro FAAH activity, 10 uM (FAAH [2]): 38.3 % of control
O=C(N1CCC(c2nc(-c3cccnc3)no2)CC1)n1nnc2ccccc21 [Compound 116, (1H-benzo[d][1,2,3]triazol-1-yl)(4-(3-(pyridin-3-yl)-1,2,4-oxadiazol-5-yl)piperidin-1-yl)methanone] | 126.2 % of control | 0.5 % of control | 113.2 % of control | –
CCCCN(C)C(=O)n1nnc2ccccc21 [Compound 75, N-butyl-N-methyl-1H-benzo[d][1,2,3]triazole-1-carboxamide] | – | 0 % of control | – | In Vivo BRh 30 mg/kg 1 h, remaining FAAH activity (FAAH [1]): 0.4 % of control; In Vivo LVh 30 mg/kg 1 h, remaining FAAH activity (FAAH [3]): 2.7 % of control
CN(C(=O)n1cnc(-c2ccc[n+]([O-])c2)c1)C1CCCCC1 [Compound no. 362, 3-(1-(cyclohexyl(methyl)carbamoyl)-1H-imidazol-4-yl)pyridine 1-oxide] | – | – | – | In Vivo BRh 3 mg·kg 8 h (remaining FAAH activity, % of control) (FAAH [1]): 1.6 % of control; In Vitro 100 nM (FAAH activity, % of control) (FAAH [2]): 78.2 % of control; In Vivo LVh 3 mg·kg 8 h (remaining FAAH activity, % of control) (FAAH [3]): 1.7 % of control
CC(C)N(Cc1ccccc1)C(=O)n1cnc(-c2ccccc2)c1 [Compound 250, N-benzyl-N-isopropyl-4-phenyl-1H-imidazole-1-carboxamide] | 102.1 % of control | 90.5 % of control | 52.6 % of control | –
COc1ccc(-c2cn(C(=O)N(C)C3CCCCC3)cn2)cc1F [Compound 314, N-cyclohexyl-4-(3-fluoro-4-methoxyphenyl)-N-methyl-1H-imidazole-1-carboxamide] | – | – | – | In Vivo BRh 3 mg·kg 8 h (remaining FAAH activity, % of control) (FAAH [1]): 84.3 % of control; In Vitro 100 nM (FAAH activity, % of control) (FAAH [2]): 84.3 % of control; In Vivo LVh 3 mg·kg 8 h (remaining FAAH activity, % of control) (FAAH [3]): 48 % of control
COc1cccc(-c2cccc(-c3cn(C(=O)N4COCC4(C)C)cn3)c2)c1 [Compound 236, (4,4-dimethyloxazolidin-3-yl)(4-(3′-methoxybiphenyl-3-yl)-1H-imidazol-1-yl)methanone] | 67.7 % of control | 75.4 % of control | 37.7 % of control | –
CN(C(=O)n1cnc(-c2ccc(F)cc2)c1)c1ccccc1 [Compound 29, 4-(4-fluorophenyl)-N-methyl-N-phenyl-1H-imidazole-1-carboxamide] | – | 52.5 % of control | – | In Vivo BRh 30 mg/kg 1 h, remaining FAAH activity (FAAH [1]): 10.7 % of control; In Vitro FAAH activity, 10 uM (FAAH [2]): 0 % of control; In Vivo LVh 30 mg/kg 1 h, remaining FAAH activity (FAAH [3]): 17.2 % of control
O=C(NCc1ccccc1)n1nnc2ccccc21 [Compound 61, N-benzyl-1H-benzo[d][1,2,3]triazole-1-carboxamide] | – | 2.2 % of control | – | In Vivo BRh 30 mg/kg 1 h, remaining FAAH activity (FAAH [1]): 87.5 % of control; In Vivo LVh 30 mg/kg 1 h, remaining FAAH activity (FAAH [3]): 83.9 % of control
CC1(C)COCN1C(=O)n1cnc(-c2ccc(Cl)cc2)n1 [Compound 189, (3-(4-chlorophenyl)-1H-1,2,4-triazol-1-yl)(4,4-dimethyloxazolidin-3-yl)methanone] | 105.9 % of control | 98.5 % of control | 87.6 % of control | –
CN(C(=O)n1cnc(-c2cccc(-c3ccccc3)c2)c1)C1CCCCC1 [Compound 239, 4-(biphenyl-3-yl)-N-cyclohexyl-N-methyl-1H-imidazole-1-carboxamide] | 16.4 % of control | 4 % of control | 4.6 % of control | –
O=C(N1CCN(c2ccccc2)CC1)n1cnc(-c2cccc(-c3ccccc3)c2)c1 [Compound 196, (4-(biphenyl-3-yl)-1H-imidazol-1-yl)(4-phenylpiperazin-1-yl)methanone] | 88.1 % of control | 2.5 % of control | 78.3 % of control | –
COc1cc(-c2cn(C(=O)N(C)C3CCCCC3)cn2)ccc1F [Compound 319, N-cyclohexyl-4-(4-fluoro-3-methoxyphenyl)-N-methyl-1H-imidazole-1-carboxamide] | – | – | – | In Vivo BRh 3 mg·kg 8 h (remaining FAAH activity, % of control) (FAAH [1]): 5.9 % of control; In Vitro 100 nM (FAAH activity, % of control) (FAAH [2]): 19.2 % of control; In Vivo LVh 3 mg·kg 8 h (remaining FAAH activity, % of control) (FAAH [3]): 2 % of control
CN(C(=O)n1nnc2ccccc21)C1CCC2(CC1)OCC(C)(C)CO2 [Compound 143, N-(3,3-dimethyl-1,5-dioxaspiro[5.5]undec-9-yl)-N-methyl-1H-benzotriazole-1-carboxamide] | 0.4 % of control | 2.5 % of control | 0.7 % of control | –
CC1(C)COCN1C(=O)n1nnc2ccc(Br)cc21 [Compound 162, (6-bromo-1H-benzo[d][1,2,3]triazol-1-yl)(4,4-dimethyloxazolidin-3-yl)methanone] | 0.9 % of control | 0 % of control | 3.1 % of control | –
CN(C(=O)n1cnc(-c2ccc(O)c(N)c2)c1)C1CCCCC1.Cl [Compound no. 357, 4-(3-amino-4-hydroxyphenyl)-N-cyclohexyl-N-methyl-1H-imidazole-1-carboxamide hydrochloride] | – | – | – | In Vivo BRh 3 mg·kg 8 h (remaining FAAH activity, % of control) (FAAH [1]): 111.9 % of control; In Vitro 100 nM (FAAH activity, % of control) (FAAH [2]): 93.9 % of control; In Vivo LVh 3 mg·kg 8 h (remaining FAAH activity, % of control) (FAAH [3]): 10.4 % of control
C[C@@H](c1ccccc1)N(C)C(=O)n1nnc2ccccc21 [Compound 195, (S)—N-methyl-N-(1-phenylethyl)-1H-benzo[d][1,2,3]triazole-1-carboxamide] | 9.1 % of control | 15.7 % of control | 5.7 % of control | –
CN(C(=O)n1cnc(-c2ccc(F)cc2)c1)C1CCCCC1 [Compound 273, N-cyclohexyl-4-(4-fluorophenyl)-N-methyl-1H-imidazole-1-carboxamide] | – | – | – | In Vivo BRh 3 mg·kg 8 h (remaining FAAH activity, % of control) (FAAH [1]): 3.4 % of control; In Vitro 100 nM (FAAH activity, % of control) (FAAH [2]): 65.1 % of control; In Vivo LVh 3 mg·kg 8 h (remaining FAAH activity, % of control) (FAAH [3]): 2.6 % of control
